Measured values: the supplement of paper PMC11451515

How the values were obtained:
Settings in all cases: 48 h
[1] = system: SEM cells; assay: AUC of viability dose-response curve (% viability x log10 dose units); higher = less sensitive
Method in brief: (§1)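 Leukemia cells adapted to each medium were seeded at 500 or 1000 cells/well in 1536-well plates and dosed with library compounds in DMSO at 11 threefold doses from 47 μM to 0.79 nM for 48 h at 37°C. CellTiter-Glo One luminescence was normalised per plate to DMSO and cell-free wells, then fitted with a four-parameter log-logistic model over log10 doses. Area under the curve was taken from this fit by the trapezoidal rule, with curves above full viability scaled and curves failing quality control removed.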

[2] = system: P12-Ichikawa; assay: as above
Method in brief: as §1

[3] = system: NOMO1; assay: as above
Method in brief: as §1

[4] = system: SEM cells; assay: cell viability relative to DMSO control; higher = less cytotoxic
Method in brief: (§2)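 Library compounds in DMSO were pin-dosed in an 11-point threefold series (47 μM to 0.79 nM) onto leukemia cells in 1536-well plates (5 μl). Plates held 500 cells/well of NOMO1 or SEM or 1000 cells/well of P12-Ichikawa, each adapted for at least four passages in each medium. Luminescence was read with CellTiter-Glo One after 48 h at 37°C. Viability means the per-plate percentage relative to DMSO wells, using cell-free wells as background.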

[5] = system: P12-Ichikawa; assay: as above
Method in brief: as §2

[6] = system: NOMO1; assay: as above
Method in brief: as §2

COc1cc([C@@H]2c3cc4c(cc3[C@H](O)[C@H]3COC(=O)[C@@H]23)OCO4)cc(OC)c1OC
AUC of viability dose-response curve
Settings | [1] | [2] | [3]
HPLM + 10% dialyzed FBS | 266 | 271 | 304
RPMI 5 mM glucose + 10% FBS | 280 | 279 | 280
RPMI 5 mM glucose + 10% dialyzed FBS | 249 | 291 | 292

cell viability [%]
Settings | [4] | [5] | [6]
HPLM + 10% dialyzed FBS, 0.000781 µM | 83.1 | 84.1 | 89.1
HPLM + 10% dialyzed FBS, 0.00234 µM | 82.7 | 93.9 | 102
HPLM + 10% dialyzed FBS, 0.00702 µM | 95.3 | 95.1 | 93.4
HPLM + 10% dialyzed FBS, 0.0211 µM | 101 | 104 | 105
HPLM + 10% dialyzed FBS, 0.0632 µM | 86.7 | 100 | 91.6
HPLM + 10% dialyzed FBS, 0.19 µM | 69.5 | 77.6 | 76.8
HPLM + 10% dialyzed FBS, 0.569 µM | 30.2 | 30.8 | 32.5
HPLM + 10% dialyzed FBS, 1.71 µM | 19.1 | 14.3 | 26.3
HPLM + 10% dialyzed FBS, 5.12 µM | 18.8 | 8.67 | 33.8
HPLM + 10% dialyzed FBS, 15.4 µM | 13.2 | 5.39 | 23.9
HPLM + 10% dialyzed FBS, 46.1 µM | 11.6 | 4.89 | 25.2
RPMI 5 mM glucose + 10% FBS, 0.000781 µM | 101 | 94.5 | 84.2
RPMI 5 mM glucose + 10% FBS, 0.00234 µM | 97.2 | 95.3 | 87.9
RPMI 5 mM glucose + 10% FBS, 0.00702 µM | 104 | 96.5 | 86.5
RPMI 5 mM glucose + 10% FBS, 0.0211 µM | 98.3 | 95.7 | 99.2
RPMI 5 mM glucose + 10% FBS, 0.0632 µM | 93.5 | 98.7 | 92.7
RPMI 5 mM glucose + 10% FBS, 0.19 µM | 80.7 | 83.2 | 85.7
RPMI 5 mM glucose + 10% FBS, 0.569 µM | 23.2 | 34.1 | 39.9
RPMI 5 mM glucose + 10% FBS, 1.71 µM | 12.1 | 20.9 | 12.5
RPMI 5 mM glucose + 10% FBS, 5.12 µM | 12.2 | 8.85 | 19.3
RPMI 5 mM glucose + 10% FBS, 15.4 µM | 13.5 | 5.8 | 16.6
RPMI 5 mM glucose + 10% FBS, 46.1 µM | 6.13 | 4.88 | 16
RPMI 5 mM glucose + 10% dialyzed FBS, 0.000781 µM | 75.4 | 86.9 | 92
RPMI 5 mM glucose + 10% dialyzed FBS, 0.00234 µM | 76 | 95.1 | 81.5
RPMI 5 mM glucose + 10% dialyzed FBS, 0.00702 µM | 99.9 | 101 | 92.9
RPMI 5 mM glucose + 10% dialyzed FBS, 0.0211 µM | 86.5 | 94.3 | 90
RPMI 5 mM glucose + 10% dialyzed FBS, 0.0632 µM | 81.2 | 97.6 | 93.6
RPMI 5 mM glucose + 10% dialyzed FBS, 0.19 µM | 63 | 91.2 | 91.3
RPMI 5 mM glucose + 10% dialyzed FBS, 0.569 µM | 29.2 | 43.9 | 47.7
RPMI 5 mM glucose + 10% dialyzed FBS, 1.71 µM | 16.8 | 22.7 | 20
RPMI 5 mM glucose + 10% dialyzed FBS, 5.12 µM | 17.9 | 15 | 19.4
RPMI 5 mM glucose + 10% dialyzed FBS, 15.4 µM | 16.9 | 10.4 | 20.2
RPMI 5 mM glucose + 10% dialyzed FBS, 46.1 µM | 8.73 | 5.7 | 17.5

C=C1C(=O)OC(CCCCCCCC)C1C(=O)O (stereo unspecified)
AUC of viability dose-response curve
Settings | [1] | [2] | [3]
HPLM + 10% dialyzed FBS | 461 | 468 | 474
RPMI 5 mM glucose + 10% FBS | 457 | 467 | 462
RPMI 5 mM glucose + 10% dialyzed FBS | 468 | 468 | 464

cell viability [%]
Settings | [4] | [5] | [6]
HPLM + 10% dialyzed FBS, 0.000781 µM | 97.2 | 105 | 107
HPLM + 10% dialyzed FBS, 0.00234 µM | 108 | 116 | 125
HPLM + 10% dialyzed FBS, 0.00702 µM | 106 | 113 | 123
HPLM + 10% dialyzed FBS, 0.0211 µM | 118 | 122 | 135
HPLM + 10% dialyzed FBS, 0.0632 µM | 108 | 123 | 135
HPLM + 10% dialyzed FBS, 0.19 µM | 105 | 122 | 139
HPLM + 10% dialyzed FBS, 0.569 µM | 111 | 124 | 130
HPLM + 10% dialyzed FBS, 1.71 µM | 107 | 121 | 125
HPLM + 10% dialyzed FBS, 5.12 µM | 90.6 | 129 | 104
HPLM + 10% dialyzed FBS, 15.4 µM | 125 | 120 | 136
HPLM + 10% dialyzed FBS, 46.1 µM | 113 | 115 | 118
RPMI 5 mM glucose + 10% FBS, 0.000781 µM | 97.5 | 124 | 113
RPMI 5 mM glucose + 10% FBS, 0.00234 µM | 99.9 | 120 | 114
RPMI 5 mM glucose + 10% FBS, 0.00702 µM | 111 | 123 | 112
RPMI 5 mM glucose + 10% FBS, 0.0211 µM | 106 | 132 | 122
RPMI 5 mM glucose + 10% FBS, 0.0632 µM | 102 | 129 | 131
RPMI 5 mM glucose + 10% FBS, 0.19 µM | 119 | 122 | 127
RPMI 5 mM glucose + 10% FBS, 0.569 µM | 108 | 137 | 119
RPMI 5 mM glucose + 10% FBS, 1.71 µM | 113 | 132 | 132
RPMI 5 mM glucose + 10% FBS, 5.12 µM | 14.1 | 128 | 129
RPMI 5 mM glucose + 10% FBS, 15.4 µM | 125 | 129 | 127
RPMI 5 mM glucose + 10% FBS, 46.1 µM | 113 | 128 | 124
RPMI 5 mM glucose + 10% dialyzed FBS, 0.000781 µM | 111 | 107 | 109
RPMI 5 mM glucose + 10% dialyzed FBS, 0.00234 µM | 98.2 | 116 | 123
RPMI 5 mM glucose + 10% dialyzed FBS, 0.00702 µM | 111 | 122 | 113
RPMI 5 mM glucose + 10% dialyzed FBS, 0.0211 µM | 126 | 129 | 130
RPMI 5 mM glucose + 10% dialyzed FBS, 0.0632 µM | 120 | 124 | 135
RPMI 5 mM glucose + 10% dialyzed FBS, 0.19 µM | 128 | 123 | 136
RPMI 5 mM glucose + 10% dialyzed FBS, 0.569 µM | 125 | 133 | 125
RPMI 5 mM glucose + 10% dialyzed FBS, 1.71 µM | 117 | 131 | 120
RPMI 5 mM glucose + 10% dialyzed FBS, 5.12 µM | 84.3 | 133 | 121
RPMI 5 mM glucose + 10% dialyzed FBS, 15.4 µM | 121 | 128 | 129
RPMI 5 mM glucose + 10% dialyzed FBS, 46.1 µM | 121 | 113 | 120
